System: patients with refractory metastatic colorectal cancer (mCRC)
Experiment: PFS, OS and disease control in the testing (validation) cohort of refractory mCRC patients receiving TAS-102 (n=129, Italy), by baseline characteristics, SNP genotype and toxicity
Format: in vivo, human
Settings: for OS HR (95% CI)‡ / PFS HR (95% CI) ‡: multivariable; for Disease Control Rate: PD / Disease Control Rate: SD: patients, n (%); for Disease Control Rate PD / Disease Control Rate SD / Overall Survival Median, months (95% CI) / Progression-free Survival Median, months (95% CI) / Overall Survival HR (95% CI) multivariate / Overall Survival HR (95% CI) univariate / Progression-free Survival HR (95% CI) multivariate / Progression-free Survival HR (95% CI) univariate / OS / PFS: testing cohort
Protocol: All patients underwent the treatment in salvage-line setting. […]
(§1) Genomic DNA was extracted from peripheral whole blood in patients of all cohorts using the QIAmp Kit (Qiagen, Valencia, Calif., USA) according to the manufacturer's protocol (www.qiagen.com). The candidate SNPs were genotyped using PCR-based direct DNA sequence analysis by ABI 3100A Capillary Genetic Analyzer and Sequencing Scanner v1.0 (Applied Biosystems). Amplification of extracted DNA was carried out using both forward and reverse primers for each gene polymorphism as shown in Table 1. […] The investigators analyzing SNPs were blinded to the clinical data of the study patients.
The primary endpoint in this study was progression-free survival (PFS), and the secondary endpoints were overall survival (OS) and disease control rate (DCR). PFS was calculated from the date of starting treatment to the first observation of disease progression or death from any cause. If a patient had no disease progression or death, PFS was censored at the date of last follow up. OS was calculated from the date of starting treatment until the date of death from any cause or the date of the last follow-up, at which point OS was censored. The disease control rate (DCR) was defined as the proportion of patients who achieved a stable disease (SD) or […] according to RECISTv1.1. Chi-square test was used to examine the difference in baseline patient characteristics among the three cohorts. Allelic distribution of all SNPs by ethnicity for deviation from Hardy-Weinberg equilibrium and the allelic frequencies of SNPs were tested using the Chi-square tests with one degree of freedom. The associations between candidate SNPs and disease control, and toxicities were examined using contingency tables and Fisher's exact test. The associations of SNPs with PFS and OS were analysed using Kaplan-Meier curves and the log-rank test. Because the true mode of inheritance of candidate SNPs was not established yet, a codominant or dominant genetic model if appropriate was considered.
All patients underwent the treatment in salvage-line setting. […] In all patients, adverse events were graded according to the Common Terminology Criteria for Adverse Events, version 4.0. […]
as §1, with “tested” for “genotyped”, “Biosystems).” for “Biosystems). Amplification of extracted DNA was carried out using both forward and reverse primers for each gene polymorphism as shown in Table 1.”, “data.” for “data of the study patients.”
The primary endpoint in this study was progression-free survival (PFS), and the secondary endpoints were overall survival (OS) and disease control rate (DCR).

[1] = ATR rs2227928 A/A vs G/G, univariate
[2] = ATR rs2227928 Any A vs G/G, univariate
[3] = ATR rs2227928 G/A vs G/G, univariate
[4] = Pin1 rs2233678 G/C and C/C grouped together
[5] = Pin1 rs2233678 G/C and C/C grouped vs G/G
[6] = Pin1 rs2233678 G/C and C/C grouped vs G/G, univariate
[7] = Validation cohort, Neutropenia grade <3
[8] = Validation cohort, Neutropenia grade ≥3 vs <3, univariate
[9] = hENT1 + OCT2/MATE1 classification: Fair
[10] = hENT1 + OCT2/MATE1 classification: Good or Excellent
[11] = hENT1 + OCT2/MATE1 classification: Poor

Substance: Trifluridine/tipiracil [TAS-102]
- PFS median, months (95% CI) (ATR rs2227928 A/A): 2.4 months
- OS HR (95% CI)‡ (ATR rs2227928 A/A vs G/G): 1.32
- PFS HR (95% CI) ‡ (ATR rs2227928 A/A vs G/G): 1.03
- OS HR (95% CI)† [1]: 0.94
- PFS HR (95% CI) † [1]: 0.79
- Disease Control Rate: PD (ATR rs2227928 A/A): 14 (56%)
- Disease Control Rate: SD (ATR rs2227928 A/A): 11 (44%)
- OS median, months (95% CI) (ATR rs2227928 Any A): 5.5 months
- PFS median, months (95% CI) (ATR rs2227928 Any A): 2.0 months
- OS HR (95% CI)‡ (ATR rs2227928 Any A vs G/G): 1.35
- PFS HR (95% CI) ‡ (ATR rs2227928 Any A vs G/G): 1.33
- OS HR (95% CI)† [2]: 1.12
- PFS HR (95% CI) † [2]: 1.11
- Disease Control Rate: PD (ATR rs2227928 Any A): 64 (72%)
- Disease Control Rate: SD (ATR rs2227928 Any A): 25 (28%)
- OS median, months (95% CI) (ATR rs2227928 G/A): 5.4 months
- PFS median, months (95% CI) (ATR rs2227928 G/A): 2.0 months
- OS HR (95% CI)‡ (ATR rs2227928 G/A vs G/G): 1.36
- PFS HR (95% CI) ‡ (ATR rs2227928 G/A vs G/G): 1.45
- OS HR (95% CI)† [3]: 1.20
- PFS HR (95% CI) † [3]: 1.26
- Disease Control Rate: PD (ATR rs2227928 G/A): 50 (78%)
- Disease Control Rate: SD (ATR rs2227928 G/A): 14 (22%)
- PFS median, months (95% CI) (ATR rs2227928 G/G): 2.1 months
- Disease Control Rate: PD (ATR rs2227928 G/G): 27 (69%)
- Disease Control Rate: SD (ATR rs2227928 G/G): 12 (31%)
- OS median, months (95% CI) [4]: 5.4 months
- PFS median, months (95% CI) [4]: 2.0 months
- Disease Control Rate: PD [4]: 26 (70%)
- Disease Control Rate: SD [4]: 11 (30%)
- OS HR (95% CI)‡ [5]: 0.97
- PFS HR (95% CI) ‡ [5]: 1.18
- OS HR (95% CI)† [6]: 0.91
- PFS HR (95% CI) † [6]: 1.00
- OS median, months (95% CI) (Pin1 rs2233678 G/G): 5.8 months
- PFS median, months (95% CI) (Pin1 rs2233678 G/G): 2.0 months
- Disease Control Rate: PD (Pin1 rs2233678 G/G): 65 (71%)
- Disease Control Rate: SD (Pin1 rs2233678 G/G): 26 (29%)
- OS median, months (95% CI) [7]: 3.7 (3.3, 5.1) months
- PFS median, months (95% CI) [7]: 1.9 (1.7, 1.9) months
- PFS median, months (95% CI) (Validation cohort, Neutropenia grade ≥3): 2.3 (2.0, 3.7) months
- OS HR (95% CI) [8]: 0.21 (0.10, 0.44)
- PFS HR (95% CI) [8]: 0.50 (0.32, 0.77)
- Disease Control Rate PD (MATE1_OCT019 Good): 63 (70%)
- Disease Control Rate SD (MATE1_OCT019 Good): 27 (30%)
- Overall Survival Median, months (95% CI) (MATE1_OCT019 Good): 5.4 (4.1, 9.0+) months
- Progression-free Survival Median, months (95% CI) (MATE1_OCT019 Good): 2.0 (1.9, 2.3) months
- Overall Survival HR (95% CI) multivariate (MATE1_OCT019 Good vs Poor): 1.12 (0.59, 2.10)
- Overall Survival HR (95% CI) univariate (MATE1_OCT019 Good vs Poor): 1.18 (0.64, 2.17)
- Progression-free Survival HR (95% CI) multivariate (MATE1_OCT019 Good vs Poor): 0.91 (0.59, 1.42)
- Progression-free Survival HR (95% CI) univariate (MATE1_OCT019 Good vs Poor): 0.94 (0.62, 1.43)
- Disease Control Rate PD (MATE1_OCT019 Poor): 28 (74%)
- Disease Control Rate SD (MATE1_OCT019 Poor): 10 (26%)
- Progression-free Survival Median, months (95% CI) (MATE1_OCT019 Poor): 2.0 (1.8, 2.1) months
- Disease Control Rate PD (MATE1 rs2289659 A/A): 20 (74%)
- Disease Control Rate SD (MATE1 rs2289659 A/A): 7 (26%)
- Progression-free Survival Median, months (95% CI) (MATE1 rs2289659 A/A): 2.0 (1.7, 2.3) months
- Overall Survival HR (95% CI) multivariate (MATE1 rs2289659 A/A vs G/G): 1.42 (0.61, 3.32)
- Overall Survival HR (95% CI) univariate (MATE1 rs2289659 A/A vs G/G): 1.13 (0.50, 2.58)
- Progression-free Survival HR (95% CI) multivariate (MATE1 rs2289659 A/A vs G/G): 1.11 (0.63, 1.96)
- Progression-free Survival HR (95% CI) univariate (MATE1 rs2289659 A/A vs G/G): 1.01 (0.58, 1.74)
- Disease Control Rate PD (MATE1 rs2289659 Any A): 64 (70%)
- Disease Control Rate SD (MATE1 rs2289659 Any A): 27 (30%)
- Overall Survival Median, months (95% CI) (MATE1 rs2289659 Any A): 5.3 (3.9, 8.8+) months
- Progression-free Survival Median, months (95% CI) (MATE1 rs2289659 Any A): 2.0 (1.9, 2.1) months
- Overall Survival HR (95% CI) multivariate (MATE1 rs2289659 Any A vs G/G): 1.60 (0.85, 3.04)
- Overall Survival HR (95% CI) univariate (MATE1 rs2289659 Any A vs G/G): 1.42 (0.76, 2.64)
- Progression-free Survival HR (95% CI) multivariate (MATE1 rs2289659 Any A vs G/G): 1.14 (0.74, 1.75)
- Progression-free Survival HR (95% CI) univariate (MATE1 rs2289659 Any A vs G/G): 1.03 (0.68, 1.58)
- Disease Control Rate PD (MATE1 rs2289659 G/A): 44 (69%)
- Disease Control Rate SD (MATE1 rs2289659 G/A): 20 (31%)
- Overall Survival Median, months (95% CI) (MATE1 rs2289659 G/A): 4.6 (3.7, 8.8+) months
- Progression-free Survival Median, months (95% CI) (MATE1 rs2289659 G/A): 2.0 (1.8, 2.3) months
- Overall Survival HR (95% CI) multivariate (MATE1 rs2289659 G/A vs G/G): 1.67 (0.56, 3.25)
- Overall Survival HR (95% CI) univariate (MATE1 rs2289659 G/A vs G/G): 1.55 (0.81, 2.96)
- Progression-free Survival HR (95% CI) multivariate (MATE1 rs2289659 G/A vs G/G): 1.15 (0.73, 1.53)
- Progression-free Survival HR (95% CI) univariate (MATE1 rs2289659 G/A vs G/G): 1.04 (0.66, 1.64)
- Disease Control Rate PD (MATE1 rs2289659 G/G): 27 (73%)
- Disease Control Rate SD (MATE1 rs2289659 G/G): 10 (27%)
- Overall Survival Median, months (95% CI) (MATE1 rs2289659 G/G): 9.0 (4.4, 9.0+) months
- Progression-free Survival Median, months (95% CI) (MATE1 rs2289659 G/G): 1.9 (1.9, 2.4) months
- Disease Control Rate PD (OCT2 rs316019 C/A): 21 (68%)
- Disease Control Rate SD (OCT2 rs316019 C/A): 10 (32%)
- Overall Survival Median, months (95% CI) (OCT2 rs316019 C/A): 4.6 (3.6, 7.1+) months
- Progression-free Survival Median, months (95% CI) (OCT2 rs316019 C/A): 1.9 (1.7, 2.4) months
- Overall Survival HR (95% CI) multivariate (OCT2 rs316019 C/A vs C/C): 1.00 (0.53, 1.89)
- Overall Survival HR (95% CI) univariate (OCT2 rs316019 C/A vs C/C): 1.19 (0.64, 2.19)
- Progression-free Survival HR (95% CI) multivariate (OCT2 rs316019 C/A vs C/C): 1.28 (0.79, 2.07)
- Progression-free Survival HR (95% CI) univariate (OCT2 rs316019 C/A vs C/C): 1.12 (0.72, 1.76)
- Disease Control Rate PD (OCT2 rs316019 C/C): 70 (72%)
- Disease Control Rate SD (OCT2 rs316019 C/C): 27 (28%)
- Overall Survival Median, months (95% CI) (OCT2 rs316019 C/C): 5.5 (4.7, 9.0+) months
- Progression-free Survival Median, months (95% CI) (OCT2 rs316019 C/C): 2.0 (1.9, 2.3) months
- Overall Survival HR (95% CI) multivariate (adjusted for age group, liver metastasis, ECOG performance status, previous anti-EGFR, OCT2 rs316000 A/G vs A/A): 0.66 (0.36, 1.23)
- Overall Survival HR (95% CI) multivariate (adjusted for age group, liver metastasis, ECOG performance status, previous anti-EGFR, OCT2 rs316000 Any G vs A/A): 0.66 (0.36, 1.21)
- Overall Survival HR (95% CI) multivariate (adjusted for age group, liver metastasis, ECOG performance status, previous anti-EGFR, OCT2 rs316000 G/G vs A/A): 0.64 (0.08, 4.91)
- Overall Survival HR (95% CI) univariate (genotype vs A/A, OCT2 rs316000 A/G vs A/A): 0.87 (0.48, 1.57)
- Overall Survival HR (95% CI) univariate (genotype vs A/A, OCT2 rs316000 Any G vs A/A): 0.83 (0.46, 1.47)
- Overall Survival HR (95% CI) univariate (genotype vs A/A, OCT2 rs316000 G/G vs A/A): 0.45 (0.06, 3.28)
- OS [9]: 4.0 months
- PFS [9]: 1.9 months
- OS [10]: 9.0 months
- PFS [10]: 2.1 months
- OS [11]: 3.6 months
- PFS [11]: 2.0 months
- Disease Control Rate PD (hENT1 rs750370 A/A): 36 (80%)

From patent US20190233884A1 (University of Southern California, priority 2016, published 2019)
